Measurements reported in article PMC11277489, “Novel Piperazine Derivatives of Vindoline as Anticancer Agents” (International Journal of Molecular Sciences, 2024).
Where two headings read alike, the source gives them in different places.

Experiments:
MDA-MB-231/ATCC = assay: NCI60 one-dose screen (10 μM), Breast Cancer; format: cell-based, human; conditions: Homo sapiens
DU-145 = assay: NCI60 one-dose screen (10 μM), Prostate Cancer; format: cell-based; conditions: Homo sapiens
SR = assay: NCI60 one-dose screen (10 μM), Leukemia; format: cell-based; conditions: Homo sapiens, read-out: Growth percent rate
U251 = assay: NCI60 one-dose screen (10 μM), CNS Cancer; format: cell-based; conditions: Homo sapiens
PC-3 = assay: NCI60 one-dose screen (10 μM), Prostate Cancer; format: cell-based; conditions: Homo sapiens
UO-31 = assay: NCI60 one-dose screen (10 μM), Renal Cancer; format: cell-based; conditions: Homo sapiens
SNB-75 = assay: NCI60 one-dose screen (10 μM), CNS Cancer; format: cell-based, human; conditions: Homo sapiens
BT-549 = assay: NCI60 one-dose screen (10 μM), Breast Cancer; format: cell-based; conditions: Homo sapiens
UACC-62 = assay: NCI60 one-dose screen (10 μM), Melanoma; format: cell-based; conditions: Homo sapiens
NCI-H226 = assay: NCI60 one-dose screen (10 μM), Non-small Cell Lung Cancer; format: cell-based; conditions: Homo sapiens
T-47D = assay: NCI60 one-dose screen (10 μM), Breast Cancer; format: cell-based; conditions: Homo sapiens, T47D, read-out: Growth percent rate
A498 = assay: NCI60 one-dose screen (10 μM), Renal Cancer; format: cell-based; conditions: Homo sapiens
NCI-H460 = assay: NCI60 one-dose screen (10 μM), Non-small Cell Lung Cancer; format: cell-based; conditions: Homo sapiens
SK-OV-3 = assay: NCI60 one-dose screen (10 μM), Ovarian Cancer; format: cell-based; conditions: Homo sapiens
NCI/ADR-RES = assay: NCI60 one-dose screen (10 μM), Ovarian Cancer; format: cell-based; conditions: Homo sapiens, read-out: Growth percent rate
OVCAR-5 = assay: NCI60 one-dose screen (10 μM), Ovarian Cancer; format: cell-based; conditions: Homo sapiens
[1] = test system: 60 human tumor cell lines (NCI60); assay: NCI60 one-dose screen (10 μM), whole panel; format: cell-based; conditions: read-out: Growth percent rate, Mean
MDA-MB-468 = assay: NCI60 one-dose screen (10 μM), Breast Cancer; format: cell-based; conditions: Homo sapiens
HOP-92 = assay: NCI60 one-dose screen (10 μM), Non-small Cell Lung Cancer; format: cell-based; conditions: Homo sapiens; 10 μM; HOP-92, Non-small Cell Lung Cancer; read-out: Growth percent rate
[2] = 10 μM, MDA-MB-231/ATCC, Breast Cancer, read-out: Growth percent rate
[3] = 10 μM, DU-145, Prostate Cancer, read-out: Growth percent rate
[4] = U-251, 10 μM, U251, CNS Cancer, read-out: Growth percent rate
[5] = 10 μM, PC-3, Prostate Cancer, read-out: Growth percent rate
[6] = 10 μM, UO-31, Renal Cancer, read-out: Growth percent rate
[7] = 10 μM, SNB-75, CNS Cancer, read-out: Growth percent rate
[8] = 10 μM, BT-549, Breast Cancer, read-out: Growth percent rate
[9] = 10 μM, UACC-62, Melanoma, read-out: Growth percent rate
[10] = 10 μM, NCI-H226, Non-small Cell Lung Cancer, read-out: Growth percent rate
[11] = 10 μM, A498, Renal Cancer, read-out: Growth percent rate
[12] = 10 μM, NCI-H460, Non-small Cell Lung Cancer, read-out: Growth percent rate
[13] = 10 μM, SK-OV-3, Ovarian Cancer, read-out: Growth percent rate
[14] = 10 μM, OVCAR-5, Ovarian Cancer, read-out: Growth percent rate
[15] = 10 μM, mean over 60 human cancer cell lines
[16] = MDA-MB-231, read-out: Growth percent rate
[17] = DU-145, read-out: Growth percent rate
[18] = U-251, read-out: Growth percent rate
[19] = UO-31, read-out: Growth percent rate
[20] = SNB-75, read-out: Growth percent rate
[21] = BT-549, read-out: Growth percent rate
[22] = UACC-62, read-out: Growth percent rate
[23] = NCI-H226, read-out: Growth percent rate
[24] = A498, read-out: Growth percent rate
[25] = NCI-H460, read-out: Growth percent rate
[26] = SK-OV-3, read-out: Growth percent rate
[27] = OVCAR-5, read-out: Growth percent rate
[28] = 10 μM, MDA-MB-468, Breast Cancer, read-out: Growth percent rate

Row | SMILES | activity at 10 µM (MDA-MB-231/ATCC; [2]) [%] | activity at 10 µM (DU-145; [3]) [%] | activity at 10 µM (SR; 10 μM, Leukemia) [%] | activity at 10 µM (U251; [4]) [%] | activity at 10 µM (PC-3; [5]) [%] | activity at 10 µM (UO-31; [6]) [%] | activity at 10 µM (SNB-75; [7]) [%] | activity at 10 µM (BT-549; [8]) [%] | activity at 10 µM (UACC-62; [9]) [%] | activity at 10 µM (NCI-H226; [10]) [%] | activity at 10 µM (T-47D; 10 μM, T-47D, Breast Cancer) [%] | activity at 10 µM (A498; [11]) [%] | activity at 10 µM (NCI-H460; [12]) [%] | activity at 10 µM (SK-OV-3; [13]) [%] | activity at 10 µM (NCI/ADR-RES; 10 μM, Ovarian Cancer) [%] | activity at 10 µM (OVCAR-5; [14]) [%] | activity at 10 µM [1, 15] [%] | activity at 10 µM (MDA-MB-231/ATCC; [16]) [%] | activity at 10 µM (DU-145; [17]) [%] | activity at 10 µM (SR) [%] | other results
1 | CCC12C=CCN3CCC4(c5cc(NC(=O)CN6CCN(C)CC6)c(OC)cc5N(C)C4C(O)(C(=O)OC)C1OC(C)=O)C32 (stereo not drawn) [Compound 16] | 102 | 115 | 93.8 | 97.4 | 93.1 | 89.4 | 95.6 | 113 | 98.9 | 101 | 104 | 158 | 142 | 113 | 104 | 102 | 103 | – | – | – | –
2 | CCC12C=CCN3CCC4(c5cc(NC(=O)CN6CCN(Cc7ccc(C(F)(F)F)cc7)CC6)c(OC)cc5N(C)C4C(O)(C(=O)OC)C1OC(C)=O)C32 (stereo not drawn) [Compound 18] | – | – | – | – | – | – | – | – | – | – | – | – | – | – | – | – | – | 43.7 | 71.6 | 48.2 | activity at 10 µM (U251; [18]): 74.8%; activity at 10 µM (UO-31; [19]): 50%; activity at 10 µM (SNB-75; [20]): 20.3%; activity at 10 µM (BT-549; [21]): 47%; activity at 10 µM (UACC-62; [22]): 74.4%; activity at 10 µM (NCI-H226; [23]): 67.7%; activity at 10 µM (T-47D): 51.4%; activity at 10 µM (A498; [24]): 78.7%; activity at 10 µM (NCI-H460; [25]): 62.1%; activity at 10 µM (SK-OV-3; [26]): 87%; activity at 10 µM (NCI/ADR-RES): 61.9%; activity at 10 µM (MDA-MB-468; MDA-MB-468, read-out: Growth percent rate): 39.8%; activity at 10 µM (OVCAR-5; [27]): 108%; activity at 10 µM ([1]; Homo sapiens): 60.6%
3 | CCC12C=CCN3CCC4(c5cc(NC(=O)CN6CCN(Cc7ccc(F)cc7)CC6)c(OC)cc5N(C)C4C(O)(C(=O)OC)C1OC(C)=O)C32 (stereo not drawn) [Compound 19] | – | – | – | – | – | – | – | – | – | – | – | – | – | – | – | – | – | 102 | 111 | 75.3 | activity at 10 µM (U251; [18]): 103%; activity at 10 µM (PC-3; PC-3, read-out: Growth percent rate): 73.6%; activity at 10 µM (UO-31; [19]): 89.1%; activity at 10 µM (SNB-75; [20]): 87.3%; activity at 10 µM (BT-549; [21]): 101%; activity at 10 µM (UACC-62; [22]): 96.9%; activity at 10 µM (NCI-H226; [23]): 97.8%; activity at 10 µM (T-47D): 93%; activity at 10 µM (A498; [24]): 132%; activity at 10 µM (NCI-H460; [25]): 129%; activity at 10 µM (SK-OV-3; [26]): 108%; activity at 10 µM (NCI/ADR-RES): 97.3%; activity at 10 µM (OVCAR-5; [27]): 111%; activity at 10 µM ([1]; Homo sapiens): 99.6%
4 | CCC12C=CCN3CCC4(c5cc(NC(=O)CN6CCN(C(=O)c7ccco7)CC6)c(OC)cc5N(C)C4C(O)(C(=O)OC)C1OC(C)=O)C32 (stereo not drawn) [Compound 21] | 98.8 | 110 | 97.2 | 118 | – | 89.3 | 91 | 117 | 103 | 111 | 111 | 104 | 108 | 113 | 112 | 121 | 108 | – | – | – | activity at 10 µM (MDA-MB-468; [28]): 120%
5 | CC[C@]12C=CCN3CC[C@@]4(c5ccc(OC)cc5N(C)[C@H]4[C@@](O)(C(=O)OC)[C@@H]1OC(=O)CCCN1CCN(C(=O)c4ccco4)CC1)[C@@H]32 [Compound 26] | 102 | 105 | 75.4 | 93.4 | 80.5 | 80.6 | 68.3 | 96.8 | 86.4 | 94.9 | 82.2 | 107 | 112 | 108 | 91.8 | 112 | 96.8 | – | – | – | –
6 | CC[C@]12C=CCN3CC[C@@]4(c5ccc(OC)cc5N(C)[C@H]4[C@@](O)(C(=O)OC)[C@@H]1OC(=O)CCC(=O)N1CCN(C)CC1)[C@@H]32 [Compound 27] | – | 103 | – | 110 | 101 | – | 64.3 | 88.6 | 112 | 80.4 | – | 105 | 102 | 106 | 107 | – | 99.5 | – | – | – | activity at 10 µM (HOP-92): 105%; activity at 10 µM (MDA-MB-468; [28]): 124%
